Patent US20140045824A1, “METHOD FOR PRODUCING COMPLEX CRYSTAL AND METHOD FOR SCREENING COMPLEX CRYSTAL” (priority 2011, published 2014)

Key:
Format in all cases: physicochemical
[1] = Cocrystal screening by co-grinding method (Comparative Example 2); set-up: key: A cocrystal was completely formed.; B: A mixture of a cocrystal and the host compound or guest compound was formed.; C: A cocrystal was not formed (a mixture of the host compound and the guest compound was formed); details: host theophylline, equimolar guest, mixed/ground in agate mortar
Description: (§1) 3 mg (0.0167 mmoles) of theophylline and a guest compound shown in Table 1 in an equimolar amount (0.0167 mmoles) to theophylline were weighed and mixed using an agate mortar. At that time, particles having a large size to an extent that they could be distinguished through visual inspection were grinded on the agate mortar. The obtained solids were subjected to powder X-ray diffraction measurement and thermal analysis.

[2] = Cocrystal screening by slurry method (Comparative Examples 1-1 to 1-6), powder X-ray diffraction; set-up: key to Cocrystal formation, Comparative Example 1* / Cocrystal formation, Comparative Example 1-1 / Cocrystal formation, Comparative Example 1-2 / Cocrystal formation, Comparative Example 1-3 / Cocrystal formation, Comparative Example 1-4 / Cocrystal formation, Comparative Example 1-5 / Cocrystal formation, Comparative Example 1-6: A cocrystal was completely formed.; B: A mixture of a cocrystal and the host compound or guest compound was formed.; C: A cocrystal was not formed (a mixture of the host compound and the guest compound was formed); details: host theophylline; for Cocrystal formation, Comparative Example 1-6: slurry in acetone; for Cocrystal formation, Comparative Example 1-6 / Cocrystal formation, Comparative Example 1-2 / Cocrystal formation, Comparative Example 1-5 / Cocrystal formation, Comparative Example 1-3 / Cocrystal formation, Comparative Example 1-4 / Cocrystal formation, Comparative Example 1-1: room temperature 7 days; for Cocrystal formation, Comparative Example 1-2: slurry in ethanol; for Cocrystal formation, Comparative Example 1-5: slurry in ethyl acetate; for Cocrystal formation, Comparative Example 1-3: slurry in tetrahydrofuran; for Cocrystal formation, Comparative Example 1-4: slurry in toluene; for Cocrystal formation, Comparative Example 1*: slurry summary: A if a cocrystal was formed in any one of Comparative Examples 1-1 to 1-6
Description: 3 mg (0.0167 mmoles) of theophylline and a guest compound shown in Table 1 in an equimolar amount (0.0167 mmoles) to theophylline were weighed and put into a glass container, to which was then added 60 μL of water. These were shaken at room temperature for 7 days, and the obtained residues were subjected to powder X-ray diffraction measurement. 3 mg (0.0167 mmoles) of theophylline and a guest compound shown in Table I in an equimolar amount (0.0167 mmoles) to theophylline were weighed and put into a glass container, to which was then added 60 μL of ethanol. These were shaken at room temperature for 7 days, and the obtained residues were subjected to powder X-ray diffraction measurement. 3 mg (0.0167 mmoles) of theophylline and a guest compound shown in Table 1 in an equimolar amount (0.0167 mmoles) to theophylline were weighed and put into a glass container, to which was then added 60 μL of tetrahydrofuran. This was shaken at room temperature for 7 days, and the obtained residues were subjected to powder X-ray diffraction measurement. 3 mg (0.0167 mmoles) of theophylline and a guest compound shown in Table 1 in an equimolar amount (0.0167 mmoles) to theophylline were weighed and put into a glass container, to which was then added 60 μL of toluene. These were shaken at room temperature for 7 days, and the obtained residues were subjected to powder X-ray diffraction measurement. 3 mg (0.0167 mmoles) of theophylline and a guest compound shown in Table 1 in an equimolar amount (0.0167 mmoles) to theophylline were weighed and put into a glass container, to which was then added 60 μL of ethyl acetate. These were shaken at room temperature for 7 days, and the obtained residues were subjected to powder X-ray diffraction measurement. 3 mg (0.0167 mmoles) of theophylline and a guest compound shown in Table 1 in an equimolar amount (0.0167 mmoles) to theophylline were weighed and put into a glass container, to which was then added 60 μL of acetone. These were shaken at room temperature for 7 days, and the obtained residues were subjected to powder X-ray diffraction measurement.

[3] = Cocrystal screening by heating method without menthol (Comparative Example 3); set-up: key: A cocrystal was completely formed.; B: A mixture of a cocrystal and the host compound or guest compound was formed.; C: A cocrystal was not formed (a mixture of the host compound and the guest compound was formed); details: host theophylline, equimolar guest, no menthol, 4 hours at 80° C.
Description: 3 mg (0.0167 mmoles) of theophylline and a guest compound shown in Table 1 in an equimolar amount (0.0167 mmoles) to theophylline were weighed and mixed using an agate mortar. At that time, particles having a large size to an extent that they could be distinguished through visual inspection were grinded on the agate mortar. 10 mg of this mixed powder was weighed and put into a test tube, followed by heating for 4 hours in an oven at 80° C. The obtained solid was subjected to powder X-ray diffraction measurement and thermal analysis.

[4] = Cocrystal screening by heat melting 1-menthol (Example 1), powder X-ray diffraction and thermal analysis; set-up: key to Cocrystal formation, Example 1: A cocrystal was completely formed.; B: A mixture of a cocrystal and the host compound or guest compound was formed.; C: A cocrystal was not formed (a mixture of the host compound and the guest compound was formed); details: host theophylline; for Cocrystal formation, Example 1: equimolar guest, 1-menthol added, 4 hours at 80° C.
Description: Theophylline and a guest compound shown in Table 1 in an equimolar amount to theophylline were weighed and mixed using an agate mortar. […] Thereafter, the obtained mixed powder of theophylline, the guest compound, and 1-menthol was heated for 4 hours in an oven at 80° C., and the obtained solid was subjected to powder X-ray diffraction measurement and thermal analysis.

[5] = Cocrystal screening by mixing and grinding method (Comparative Example 5); set-up: key: A cocrystal was completely formed.; B: A mixture of a cocrystal and the host compound or guest compound was formed.; C: A cocrystal was not formed (a mixture of the host compound and the guest compound was formed); details: host carbamazepine, equimolar guest, mixed/ground in agate mortar
Description: as §1, with “Carbamazepine” for “3 mg (0.0167 mmoles) of theophylline”, “4” for “1”, “amount” for “amount (0.0167 mmoles)”, “carbamazepine” for “theophylline”

[6] = Cocrystal screening by heating method without menthol (Comparative Example 6); set-up: key: A cocrystal was completely formed.; B: A mixture of a cocrystal and the host compound or guest compound was formed.; C: A cocrystal was not formed (a mixture of the host compound and the guest compound was formed); details: host carbamazepine, equimolar guest, no menthol, 4 hours at 80° C.
Description: Carbamazepine and a guest compound shown in Table 4 in an equimolar amount to carbamazepine were weighed and mixed using an agate mortar. At that time, particles having a large size to an extent that they could be distinguished through visual inspection were grinded on the agate mortar. 10 mg of this mixed powder was weighed and put into a test tube and heated for 4 hours in an oven at 80° C., and the obtained solids were subjected to powder X-ray diffraction measurement and thermal analysis.

| Structure (SMILES) | Cocrystal formation, Comparative Example 2 [1] | Cocrystal formation, Comparative Example 1-6 [2] | Cocrystal formation, Comparative Example 1-2 [2] | Cocrystal formation, Comparative Example 1-5 [2] | Cocrystal formation, Comparative Example 1-3 [2] | Cocrystal formation, Comparative Example 1-4 [2] | Cocrystal formation, Comparative Example 1-1 ([2]; slurry in water) | Cocrystal formation, Comparative Example 1* [2] | Cocrystal formation, Comparative Example 3 [3] | Cocrystal formation, Example 1 [4] | Cocrystal formation, Comparative Example 5 [5] | Cocrystal formation, Comparative Example 6 [6] | Cocrystal with theophylline found, Comparative Example 1-1 ([2]; slurry in water) | Cocrystal with theophylline found, Example 1 ([4]; 1-menthol, 80° C.) |
| --- | --- | --- | --- | --- | --- | --- | --- | --- | --- | --- | --- | --- | --- | --- |
| O=C(O)/C=C\C(=O)O [Maleic acid] | C | C | C | A | C | A | C | A | B | A | C | C |  |  |
| O=C(O)c1ccccc1 [Benzoic acid] | C | C | C | C | C | C | C | C | B | A | C | B |  |  |
| O=C(O)C(=O)O [Oxalic acid] | B | A | C | A | A | C | C | A | C | B | C | B |  |  |
| O=C(O)CCCC(=O)O [Glutaric acid] | C | C | C | C | C | C | C | C | B | A | C | B |  |  |
| NCC(=O)O [Glycine] | C | C | C | C | C | C | C | C | C | C | C | C |  |  |
| CC(C)C[C@H](N)C(=O)O [L-Leucine] | C | C | C | C | C | C | C | C | C | C | C | C |  |  |
| NC(=O)c1cccnc1 [Nicotinamide] | C | A | B | A | B | A | C | A | C | A | C | B |  |  |
| N=C(N)NCCC[C@H](N)C(=O)O [L(+)-Arginine] | C | C | C | C | C | C | A | A | C | C | C | C | could be found out | could not be found out |
| NC(=O)c1ccccc1 [Benzamide] | C | C | C | C | C | C | A | A | C | A | C | B |  |  |
| C/C=C/C=C/C(=O)O [Sorbic acid] | C | C | C | A | C | A | C | A | B | B | C | B |  |  |
| O=C1NS(=O)(=O)c2ccccc21 [Saccharin] | C | C | A | A | C | C | C | A | C | A | C | C |  |  |
